# Measured values published in patent EP2979694B1, “Dimercaptosuccinic acid for the treatment of multidrug resistant bacterial infections” (priority 2014, dated 2016).
# Experiments:
# K.p. 0709124 = assay: MIC of carbapenems with or without DMSA; type: cell-based, K. pneumoniae; conditions: K.p. 0709124, IMP-1b + TEM-15; no DMSA
# Procedure: (§1) Minimum inhibitory concentrations (MICs) of carbapenems were determined in-vitro with strains (reference and clinical) producing the three main types of class B carbapenemases which are IMP, VIM and NDM, with or without EDTA and DMSA.
# (§2) MICs of imipenem was determined for E. coli TOP10 pCR2.1-(PNDM-1-blaNDM-1-bleMBL) in the presence of 0, 0.01, 0.1 or 1 mg/ml of Ca-EDTA or DMSA by using the broth microdilution method in zinc-complemented M9CA minimum medium (SD7025, Euromedex, France).
# (§3) A 100 mM DMSA stock solution (Sigma Aldrich, France) (pH 5.0) was prepared in 0.2 M NaOH as recommended (Maiorino et al. 1990) and pH was neutralized to pH 7.0 with NaHCO3 Na2Ca-EDTA (Sigma Aldrich, France) dissolved in water.
# (§4) The strains were as follows: VIM producers (n=10), IMP producers (n=9), NDM-1 producers (n=10). The selected concentration of DMSA was 10-fold (0.3 mM) and 100-fold (3 mM) that of the human peak serum concentration after oral administration (Asiedu et al;, 1995), and that of Ca-EDTA was assayed at the fixed concentration of 0.2 mM (Table 2). […]
# K.p. TAW = assay: MIC of carbapenems with or without DMSA; type: cell-based, K. pneumoniae; conditions: IMP-8 + SHV-5, no DMSA
# Procedure: as §1, §2, §3, §4
# K.p. 6852 = assay: MIC of carbapenems with or without DMSA; type: cell-based, K. pneumoniae; conditions: K.p. 6852, IMP-1 + SHV-5; no DMSA
# Procedure: as §1, §2, §3, §4
# K.p. ROUM = assay: MIC of carbapenems with or without DMSA; type: cell-based, K. pneumoniae; conditions: VIM, no DMSA
# Procedure: as §1, §2, §3, §4
# E. cloacae TAW = assay: MIC of carbapenems with or without DMSA; type: cell-based; conditions: IMP-8, no DMSA
# Procedure: as §1, §2, §3, §4
# E. cloacae 1008186 = assay: MIC of carbapenems with or without DMSA; type: cell-based; conditions: E. cloacae 1008186, IMP-1; no DMSA
# Procedure: as §1, §2, §3, §4
# E. coli 1108013 = assay: MIC of carbapenems with or without DMSA; type: cell-based; conditions: E. coli 1108013, IMP-1 + TEM-1; no DMSA
# Procedure: as §1, §2, §3, §4
# E. cloacae 396715 = assay: MIC of carbapenems with or without DMSA; type: cell-based; conditions: E. cloacae 396715, VIM-1; no DMSA
# Procedure: as §1, §2, §3, §4
# E. coli 162 = assay: MIC of carbapenems with or without DMSA; type: cell-based; conditions: E. coli 162, NDM-5 + TEM-1 +CTX-M-15; no DMSA
# Procedure: as §1, §2, §3, §4
# E. coli JAP = assay: MIC of carbapenems with or without DMSA; type: cell-based; conditions: IMP-1, no DMSA
# Procedure: as §1, §2, §3, §4
# E. coli IBIS = assay: MIC of carbapenems with or without DMSA; type: cell-based; conditions: VIM-4, no DMSA, unit assumed
# Procedure: as §1, §2, §3, §4
# E. coli BOUN = assay: MIC of carbapenems with or without DMSA; type: cell-based; conditions: NDM-4 + OXA-1, no DMSA
# Procedure: as §1, §2, §3, §4
# E. cloacae 1008029 = assay: MIC of carbapenems with or without DMSA; type: cell-based; conditions: E. cloacae 1008029, VIM-1 + CTX-M-3; no DMSA
# Procedure: as §1, §2, §3, §4
# E. coli COUP = assay: MIC of carbapenems with or without DMSA; type: cell-based; conditions: NDM-7 + OXA-1 +CTX-M-15, no DMSA
# Procedure: as §1, §2, §3, §4
# E. coli IR5 = assay: MIC of carbapenems with or without DMSA; type: cell-based; conditions: E. coli IR5, NDM-1 + TEM-1 +CTX-M-15; no DMSA
# Procedure: as §1, §2, §3, §4
# E. coli 405 = assay: MIC of carbapenems with or without DMSA; type: cell-based; conditions: E. coli 405, NDM-5 + TEM-1 +CTX-M-15; no DMSA
# Procedure: as §1, §2, §3, §4
# E. coli 0404018 = assay: MIC of carbapenems with or without DMSA; type: cell-based; conditions: E. coli 0404018, VIM-1 + CMY-6; no DMSA
# Procedure: as §1, §2, §3, §4
# E. cloacae 1008183 = assay: MIC of carbapenems with or without DMSA; type: cell-based; conditions: E. cloacae 1008183, IMP-1; no DMSA
# Procedure: as §1, §2, §3, §4
# E. coli DIH = assay: MIC of carbapenems with or without DMSA; type: cell-based; conditions: VIM-19, no DMSA
# Procedure: as §1, §2, §3, §4
# E. coli MAD = assay: MIC of carbapenems with or without DMSA; type: cell-based; conditions: VIM-1 + CTX-M-3, no DMSA
# Procedure: as §1, §2, §3, §4
# E. cloacae 1008085 = assay: MIC of carbapenems with or without DMSA; type: cell-based; conditions: E. cloacae 1008085, IMP-1; no DMSA
# Procedure: as §1, §2, §3, §4
# E. coli 1008077 = assay: MIC of carbapenems with or without DMSA; type: cell-based; conditions: E. coli 1008077, VIM-1 + TEM-3; no DMSA
# Procedure: as §1, §2, §3, §4
# [1] = system: E. coli TOP10 pCR2.1-(PNDM-1-blaNDM-1-bleMBL); assay: MIC of imipenem, broth microdilution in zinc-complemented M9CA minimum medium; type: cell-based
# From the text: (§5) Inhibitory properties of DMSA and EDTA were also compared in-vitro by UV spectrophotometry using purified NDM-1 protein and carbapenems as substrates. E. coli TOP10 pCR2.1-(PNDM-1-blaNDM-1-bleMBL), expressing the blaNDM-1 gene with its original promoter (PNDM-1) cloned into a pTOPO multicopy plasmid and expressed in E. coli TOP10 reference strain (Dortet et al. 2012) was used for preliminary assays in order to determine the most efficient of DMSA being active against NDM producers.
# MICs of imipenem was determined for E. coli TOP10 pCR2.1-(PNDM-1-blaNDM-1-bleMBL) in the presence of 0, 0.01, 0.1 or 1 mg/ml of Ca-EDTA or DMSA by using the broth microdilution method in zinc-complemented M9CA minimum medium (SD7025, Euromedex, France). M9CA minimal medium was used preferably to the standard Mueller Hinton broth in order to determine precisely the concentration of zinc in broth (ZnSO4, Sigma Aldrich, France, 5µg/ml (final concentration).
# as §3
# E. coli NDM CHAN = assay: MIC of meropenem with or without DMSA or MSA; type: cell-based
# Procedure: (§6) DMSA reduced the MICs of ertapenem for bacteria producing NDM-1 though the synergy effect was weaker than that observed for bacteria producing IMP and VIM-type MBLs.
# (§7) MICs of meropenem with of without DMSA or MSA Table 3
# (§8) DMSA and MSA were used at a concentration of 3 mM each. A negative control was used as strain KpC3 producing the non- metallo carbapenemase KPC
# E. coli NDM FEK = assay: MIC of meropenem with or without DMSA or MSA; type: cell-based
# Procedure: as §6, §7, §8
# E. coli NDM pCR2.1 = assay: MIC of meropenem with or without DMSA or MSA; type: cell-based
# Procedure: as §6, §7, §8
# E. coli VIM KOW7 = assay: MIC of meropenem with or without DMSA or MSA; type: cell-based
# Procedure: as §6, §7, §8
# IMP-1 = IMP-1 (Serratia marcescens, UniProt P52699); conditions: 20 microM; cited from earlier work
# [2] = after a single oral dose of DMSA (10 mg); cited from earlier work
# IMP-like producers = assay: MIC of carbapenems, summary over IMP producers (n=9); type: cell-based
# Procedure: as §4, with “2). The MICs of carbapenems varied widely among isolates producing a same carbapenemase type. DMSA at 3 mM lowered the MICs of imipenem and ertapenem of IMP-like producers (100% of the tested isolates), and VIM-like producers (70 to 80 % of the tested isolates).” for “2).”
# NDM-like producers = assay: MIC of carbapenems, summary over NDM producers (n=10); type: cell-based; conditions: DMSA at 3 mM
# Procedure: as §4, with “2). The MICs of carbapenems varied widely among isolates producing a same carbapenemase type. DMSA at 3 mM lowered the MICs of imipenem and ertapenem of IMP-like producers (100% of the tested isolates), and VIM-like producers (70 to 80 % of the tested isolates).” for “2).”
# Kp NDM IND = assay: MIC of meropenem with or without DMSA or MSA; type: cell-based, K. pneumoniae
# Procedure: as §7, §8
# Kp VIM KOW1 = assay: MIC of meropenem with or without DMSA or MSA; type: cell-based, K. pneumoniae
# Procedure: as §7, §8
# Kp NDM KIE = assay: MIC of meropenem with or without DMSA or MSA; type: cell-based, K. pneumoniae
# Procedure: as §7, §8
# Kp C3 KPC-3 = assay: MIC of meropenem with or without DMSA or MSA (negative control strain, non-metallo carbapenemase KPC); type: cell-based, K. pneumoniae; conditions: Kp C3 KPC-3 (negative control)
# Procedure: as §7, §8
# NDM-1 [3] = target: T1, NDM-1 (Klebsiella pneumoniae, UniProt C7C422); assay: Inhibition of purified NDM-1 hydrolytic activity, UV spectrophotometry; type: biochemical
# T1 construct: made in house
# From the text: as §5
# Inhibition of NDM-1 by DMSA was assessed on a purified fraction of NDM-1, obtained as previously described for NDM-4 (Nordmann et al. 2012) with imipenem 100 µM as substrate.
# NDM-1 [4] = target: T1, NDM-1; conditions: affinity for NDM-1; cited from earlier work
# [5] = Escherichia coli, without DMSA or MSA
# [6] = Klebsiella pneumoniae, without DMSA or MSA
# T1 sequence (C7C422 29-270, looked up): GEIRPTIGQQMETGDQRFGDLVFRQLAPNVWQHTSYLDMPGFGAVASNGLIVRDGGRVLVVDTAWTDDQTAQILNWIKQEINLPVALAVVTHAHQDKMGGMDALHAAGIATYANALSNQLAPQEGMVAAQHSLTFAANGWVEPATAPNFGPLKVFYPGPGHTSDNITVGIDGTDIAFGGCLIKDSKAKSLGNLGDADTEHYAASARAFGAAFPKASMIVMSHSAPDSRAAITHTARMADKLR
# Chain of IMP-1 (P52699 19-246 limits assumed): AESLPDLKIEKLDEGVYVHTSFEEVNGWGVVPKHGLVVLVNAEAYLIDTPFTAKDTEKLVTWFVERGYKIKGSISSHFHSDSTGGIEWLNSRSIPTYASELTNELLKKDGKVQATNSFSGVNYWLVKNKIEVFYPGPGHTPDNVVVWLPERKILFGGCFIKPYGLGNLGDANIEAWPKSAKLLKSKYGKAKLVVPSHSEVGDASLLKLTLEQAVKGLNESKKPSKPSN
compound,measurement,setting,value
"C[C@@H](O)[C@H]1C(=O)N2C(C(=O)O)=C(SCCN=CN)C[C@H]12 [IPM, imipenem]",MIC,K.p. 0709124,32 µg/mL
same,MIC,K.p. TAW,4 µg/mL
same,MIC,K.p. 6852,> 32 µg/mL
same,MIC,K.p. ROUM,32 µg/mL
same,MIC,E. cloacae TAW,4 µg/mL
same,MIC,E. cloacae 1008186,16 µg/mL
same,MIC,E. coli 1108013,4 µg/mL
same,MIC,E. cloacae 396715,4 µg/mL
same,MIC,E. coli 162,32 µg/mL
same,MIC,E. coli JAP,0.25 µg/mL
same,MIC,E. coli IBIS,1 µg/mL
same,MIC,E. coli BOUN,2 µg/mL
same,MIC,E. cloacae 1008029,16 µg/mL
same,MIC,E. coli COUP,2 µg/mL
same,MIC,E. coli IR5,2 µg/mL
same,MIC,E. coli 405,32 µg/mL
same,MIC,E. coli 0404018,4 µg/mL
same,MIC,E. cloacae 1008183,8 µg/mL
same,MIC,E. coli DIH,16 µg/mL
same,MIC,E. coli MAD,0.25 µg/mL
same,MIC,E. cloacae 1008085,2 µg/mL
same,MIC,E. coli 1008077,32 µg/mL
"O=C(O)[C@@H](S)[C@@H](S)C(=O)O [DMSA, meso-2,3-dimercaptosuccinic acid]",MIC of imipenem,[1]; DMSA 0 mg/ml (imipenem alone),12 µg/mL
same,MIC of imipenem,[1]; DMSA 0.01 mg/ml,12 µg/mL
same,MIC of imipenem,[1]; DMSA 0.1 mg/ml,12 µg/mL
same,MIC of imipenem,[1]; DMSA 1 mg/ml,0.2 µg/mL
same,MIC of meropenem,E. coli NDM CHAN; DMSA or MSA at 3 mM,2 µg/mL
same,MIC of meropenem,E. coli NDM FEK; DMSA or MSA at 3 mM,4 µg/mL
same,MIC of meropenem,"E. coli NDM pCR2.1; E. coli NDM pCR2.1, DMSA or MSA at 3 mM",8 µg/mL
same,MIC of meropenem,E. coli VIM KOW7; DMSA or MSA at 3 mM,0.25 µg/mL
same,inhibition of IMP-1,IMP-1,inhibit
same,plasma concentrations of DMSA,[2],ca. 100 µM
same,effect on the MICs of carbapenems,"IMP-like producers; DMSA 0.3 mM, IMP-like producing isolates",lowered the MICs of carbapenems for most IMP-like producing isolates
same,tested isolates for which the MICs of imipenem and ertapenem were lowered,"IMP-like producers; DMSA at 3 mM, IMP-like producers",100%
same,effect on the MIC values of imipenem,NDM-like producers,did not significantly affect
same,tested isolates for which the MICs of ertapenem were reduced,NDM-like producers,50%
same,MIC of meropenem,Kp NDM IND; DMSA or MSA at 3 mM,4 µg/mL
same,MIC of meropenem,Kp VIM KOW1; DMSA or MSA at 3 mM,32 µg/mL
same,MIC of meropenem,Kp NDM KIE; DMSA or MSA at 3 mM,0.5 µg/mL
same,MIC of meropenem,Kp C3 KPC-3; DMSA or MSA at 3 mM,> 32 µg/mL
same,IC50,NDM-1 [3],1 mM
CC/C(C(=O)O)=C(\CC)C(=O)O [ME1071],Ki,NDM-1 [4],24 mM
C[C@@H](O)[C@H]1C(=O)N2C(C(=O)O)=C(S[C@@H]3CN[C@H](C(=O)N(C)C)C3)[C@H](C)[C@H]12 [meropenem],MIC,E. coli NDM CHAN; [5],3 µg/mL
same,MIC,E. coli NDM FEK; [5],6 µg/mL
same,MIC,"E. coli NDM pCR2.1; Escherichia coli, NDMPCR2.1, read-out: MIC of meropenem",> 32 µg/mL
same,MIC,"E. coli VIM KOW7; Escherichia coli, VIMKOW7, without DMSA or MSA",0.5 µg/mL
same,MIC,Kp NDM IND; [6],4 µg/mL
same,MIC,"Kp VIM KOW1; Klebsiella pneumoniae, VIMKOW1, without DMSA or MSA",> 32 µg/mL
same,MIC,Kp NDM KIE; [6],4 µg/mL
same,MIC,"Kp C3 KPC-3; Klebsiella pneumoniae, C3KPC3, without DMSA or MSA",> 32 µg/mL
